The numbers were not newly measured in article PMC3066409 (Diabetic Medicine, 2010), which cites them from elsewhere.

Structures can show the parent of a compound that is named as a salt.

The conditions of the data set: prescribing information.

Turning to `Cc1nccn1CC1CCc2c(c3ccccc3n2C)C1=O` (centres unmarked) [ondansetron, ondansetron hydrochloride], the Drowsiness entry is recorded as “reported adverse effect”.

In the case of `CCN(CC)CCNC(=O)c1cc(Cl)c(N)cc1OC` [metoclopramide], the Drowsiness entry is listed as “reported adverse effect”.
